{
  "source": "patent US9345678B2",
  "about": "“Prostanoid receptor agonist compounds and methods of use for same” (ALLERGAN, INC., priority 2013, dated 2016)",
  "key": {"[1]": {"tested_on": "rat endotoxin-induced uveitis (EIU) model", "test": "Rat endotoxin-induced uveitis (EIU) model: cell infiltrate and protein leakage in the aqueous humor", "type": "in vivo", "details": "for Protein concentration in the aqueous humor: FIG. 11B; for Cell infiltrate in the aqueous humor: FIG. 9C", "description": "FIGS. 9A-D show the results of experiments where cicaprost was applied topically to inhibit inflammation in a rat endotoxin-induced uveitis (EIU) model. Here, the rats were challenged with LPS, and the resulting inflammatory reaction was quantified by measuring leukocyte cell infiltration in the aqueous humor and by measuring the amount of protein leakage into the aqueous humor. In the Figures, “LPS” corresponds to the control where no other topical treatment was applied. “Vehicle” corresponds to an eye drop ophthalmic vehicle solution containing no drug, and which otherwise comprises 0.1% polysorbate 80 in an aqueous medium. “Pred-Forte” corresponds to an ophthalmic solution of 1% prednisolone acetate. “Acular” corresponds to an ophthalmic solution of 0.4% ketorolac. The concentrations of cicaprost used in the ophthalmic vehicle solution were 0.001%, 0.01%, and 0.1%.\nFIGS. 11A-B show the results of experiments measuring cell infiltrate and protein in the aqueous humor in a rat EIU model challenged with LPS, where the rats were challenged in a similar manner as described previously. Cicaprost, as well as the cicaprost prodrugs described above in Formulas II-V, were separately topically dosed as a 0.1% ophthalmic solution."}, "[2]": {"tested_on": "VEGF secretion in human macrophages", "test": "Effect on VEGF secretion in TNF-α-stimulated human macrophages in vitro", "type": "cell-based", "details": "Macrophage, TNF-α stimulation, FIG. 7", "method": "(§1) FIGS. 1A-B illustrate the effect of cicaprost on IL-8 secretion on in vitro human macrophages. The human macrophages were simulated either with lipopolysaccharide (LPS), illustrated in FIG. 1A, or with TNF-α, illustrated in FIG. 1B. The labels on the x-axis correspond respectively to tests measuring IL-8 concentration with no stimulus, a control of only stimulant vehicle (i.e., LPS or TNF-α), and stimulant vehicle in conjunction with cicaprost concentrations of 0.1 nM, 1 nM, 10 nM, 100 nM, and 1000 nM. The y-axis tracks the percentage change of concentration of IL-8 versus the control stimulant vehicle, which is set at 100%.\nFIG. 7 illustrates the effect of cicaprost on VEGF secretion on in vitro human macrophages. The human macrophages were simulated with TNF-α. The labeling of the graphs is otherwise the same as described above."}, "[3]": {"tested_on": "corneal wound (anterior keratectomy), donated human eyes", "test": "Corneal wound closure in an anterior segment model of donated human eyes", "details": "0.1% cicaprost, two drops at 0 and 9 hours, wound area at 18 hours, vs vehicle-dosed eye, 3 pairs of donor eyes", "method": "The effect of cicaprost on corneal wound healing was evaluated in an anterior segment model using 3 pairs of donated human eyes. Wounding (anterior keratectomy, AK) was induced by scoring the cornea in 8 mm diameter, and the epithelium was removed using a gill knife. The anterior segment of the eye was dissected and cultured in complete medium on a rotating platform for several days to maintain tissue differentiation. Two drops (approximately 50 μl per drop) of 0.1% cicaprost were dosed at 0 and 9 hours on one eye (“Cp”), while the other eye (“CN”) was treated with vehicle (0.1% polysorbate 80 in saline). The initial wound and the progression of wound closure was visualized with 0.015% fluorescein, and the wound area recorded at 0 and 18 hours, as shown in FIG. 12."}, "[4]": {"tested_on": "cytokine secretion in human monocyte derived dendritic cells", "test": "Cytokine secretion in LPS-stimulated human monocyte derived dendritic cells", "type": "cell-based", "method": "FIGS. 8A-F illustrate the effect of different IP receptor agonists and antagonists on cytokine secretion in human monocyte derived dendritic cells stimulated with LPS. In these experiments, the cells were exposed to cicaprost, cicaprost in conjunction with DMSO, and cicaprost with an IP receptor antagonist (Formula VI). Cytokines measured for were TNF-α, IL-6, MCP-1, MIP-1β, IL-8, and IL-12p70, corresponding to FIGS. 8A through 8F, respectively. The concentration ranges of cicaprost were 0 nM, 0.1 nM, 1 nM, 10 nM, 100 nM, and 1000 nM. The concentration of Formula VI IP receptor antagonist used was 10 uM throughout. The concentration of the various cytokines tested for were measured in ng/ml. The concentration of the DMSO used in conjunction with cicaprost was at 0.1%."}, "[5]": {"tested_on": "TNF-α secretion in human macrophages", "test": "Effect on TNF-α secretion in LPS-stimulated human macrophages in vitro", "type": "cell-based", "details": "Macrophage, LPS stimulation, FIG. 6", "method": "as §1\nFIG. 6 illustrates the effect of cicaprost on TNF-α secretion on in vitro human macrophages. The human macrophages were simulated with LPS. The labeling of the graphs is otherwise the same as described above."}, "[6]": {"tested_on": "MIP-1β secretion in human macrophages", "test": "Effect on MIP-1β secretion in stimulated human macrophages in vitro", "type": "cell-based", "details": "Macrophage", "method": "as §1\nFIGS. 4A-B illustrate the effect of cicaprost on MIP-1β secretion on in vitro human macrophages. The human macrophages were simulated either with LPS, illustrated in FIG. 4A, or with TNF-α, illustrated in FIG. 4B. The labeling of the graphs is otherwise the same as described above."}, "[7]": {"tested_on": "rat endotoxin-induced uveitis (EIU) model", "test": "Rat EIU model: cytokine concentration in the aqueous humor", "type": "in vivo", "details": "LPS challenge, topical cicaprost 0.001%, 0.01%, 0.1%, vs vehicle", "method": "FIGS. 10A-C depict the results of experiments measuring cytokine expression in a rat EIU model, where the rats were challenged with LPS. Cytokine concentration (here, MCP-1, RANTES, and IL-6) was measured subsequent to the LPS challenge, after topical application of cicaprost at concentrations from 0.001%, 0.01%, and 0.1%, together with a control eye drop vehicle (abbreviated “Vehicle” in the figures) where no cicaprost was present."}, "[8]": {"tested_on": "MIP-1α secretion in human macrophages", "test": "Effect on MIP-1α secretion in stimulated human macrophages in vitro", "type": "cell-based", "details": "Macrophage", "method": "as §1\nFIGS. 3A-B illustrate the effect of cicaprost on MIP-1α secretion on in vitro human macrophages. The human macrophages were simulated either with LPS, illustrated in FIG. 3A, or with TNF-α, illustrated in FIG. 3B. The labeling of the graphs is otherwise the same as described above."}, "[9]": {"tested_on": "MCP-1 secretion in human macrophages", "test": "Effect on MCP-1 secretion in stimulated human macrophages in vitro", "type": "cell-based", "details": "Macrophage", "method": "as §1\nFIGS. 2A-B illustrate the effect of cicaprost on MCP-1 secretion on in vitro human macrophages. The human macrophages were simulated either with LPS, illustrated in FIG. 2A, or with TNF-α, illustrated in FIG. 2B. The labeling of the graphs is otherwise the same as described above."}, "[10]": {"tested_on": "IL-8 secretion in human macrophages", "test": "Effect on IL-8 secretion in stimulated human macrophages in vitro", "type": "cell-based", "details": "Macrophage, LPS stimulation, FIG. 1A", "method": "as §1, with “The” for “FIGS. 1A-B illustrate the effect of cicaprost on IL-8 secretion on in vitro human macrophages. The”"}, "[11]": {"tested_on": "RANTES secretion in human macrophages", "test": "Effect on RANTES secretion in stimulated human macrophages in vitro", "type": "cell-based", "details": "Macrophage", "method": "as §1\nFIGS. 5A-B illustrate the effect of cicaprost on RANTES secretion on in vitro human macrophages. The human macrophages were simulated either with LPS, illustrated in FIG. 5A, or with TNF-α, illustrated in FIG. 5B. The labeling of the graphs is otherwise the same as described above."}, "[12]": {"details": "LPS challenge, topical 0.1% ophthalmic solution, vs control vehicle"}},
  "note": "Read-outs that look alike come from different tables or passages of the source.",
  "data": [
    {"molecule": "CCC#CC[C@H](C)[C@@H](C#C[C@@H]1[C@H]2C/C(=C/COCC(=O)O)C[C@H]2C[C@H]1O)OC(C)=O", "note": "[Formula IV]", "values": [
      {"measurement": "Protein concentration in the aqueous humor", "setting": "[1]; [12]", "result": "some reduction in protein concentration"}
    ]},
    {"molecule": "CCC#CC[C@H](C)[C@H](O)C#C[C@@H]1[C@H]2C/C(=C/COCC(=O)O)C[C@H]2C[C@H]1OC(C)=O", "note": "[Formula II]", "values": [
      {"measurement": "Protein concentration in the aqueous humor", "setting": "[1]; [12]", "result": "some reduction in protein concentration"}
    ]},
    {"molecule": "CCC#CC[C@H](C)[C@H](O)C#C[C@@H]1[C@H]2C/C(=C/COCC(=O)O)C[C@H]2C[C@H]1OC(=O)CC", "note": "[Formula III]", "values": [
      {"measurement": "Protein concentration in the aqueous humor", "setting": "[1]; [12]", "result": "approximately comparable to cicaprost in effect"}
    ]},
    {"molecule": "CCC#CC[C@H](C)[C@@H](C#C[C@@H]1[C@H]2C/C(=C/COCC(=O)O)C[C@H]2C[C@H]1O)OC(=O)CC", "note": "[Formula V]", "values": [
      {"measurement": "Protein concentration in the aqueous humor", "setting": "[1]; [12]", "result": "some reduction in protein concentration"}
    ]},
    {"molecule": "CCC#CC[C@H](C)[C@H](O)C#C[C@@H]1[C@H]2C/C(=C/COCC(=O)O)C[C@H]2C[C@H]1O", "note": "[cicaprost]", "values": [
      {"measurement": "EC50", "setting": "[2]", "result": 2.3, "unit": "nM"},
      {"measurement": "Percentage of wound closure", "setting": "[3]", "result": "showed an improvement in the percentage of wound closure"},
      {"measurement": "Cytokine expression (TNF-α, IL-6, MCP-1, MIP-1β, IL-8, IL-12p70)", "setting": "[4]; cicaprost 0.1-1000 nM with 0.1% DMSO", "result": "increasing inhibition of cytokine expression"},
      {"measurement": "Cytokine expression (TNF-α, IL-6, MCP-1, MIP-1β, IL-8, IL-12p70)", "setting": "[4]; cicaprost 0.1-1000 nM, vs 0 nM control", "result": "increasing inhibition of cytokine expression"},
      {"measurement": "IC50", "setting": "[5]", "result": 0.14, "unit": "nM"},
      {"measurement": "Cell infiltration in the aqueous humor", "setting": "[1]; LPS challenge, topical 0.1% ophthalmic solution, vs control vehicle, FIG. 11A", "result": "caused a reduction in cell infiltration"},
      {"measurement": "Protein concentration in the aqueous humor", "setting": "[1]; [12]", "result": "reduced protein concentration in the aqueous humor"},
      {"measurement": "Cell infiltrate in the aqueous humor", "setting": "[1]; topical 0.1% cicaprost solution", "result": "reduced cell infiltrate to near-zero levels"},
      {"measurement": "Cell infiltrate in the aqueous humor", "setting": "[1]; topical cicaprost 0.001%, 0.01%, 0.1%", "result": "increasing effect on lowering cell infiltrate"},
      {"measurement": "Protein in the aqueous humor", "setting": "[1]; topical cicaprost 0.001-0.1%, especially 0.1%, FIG. 9D", "result": "also reduced"},
      {"measurement": "IC50", "setting": "[6]; LPS stimulation, FIG. 4A, read-out: IC50 on MIP-1β secretion stimulated by LPS", "result": 0.5, "unit": "nM"},
      {"measurement": "IC50", "setting": "[6]; TNF-α stimulation, FIG. 4B, read-out: IC50 on MIP-1β secretion", "result": 0.7, "unit": "nM"},
      {"measurement": "IL-6 concentration", "setting": "[7]", "result": "reduced the concentration of the monitored cytokines"},
      {"measurement": "MCP-1 concentration", "setting": "[7]", "result": "reduced the concentration of the monitored cytokines"},
      {"measurement": "RANTES concentration", "setting": "[7]", "result": "reduced the concentration of the monitored cytokines"},
      {"measurement": "IC50", "setting": "[8]; LPS stimulation, FIG. 3A, read-out: IC50 on MIP-1α secretion stimulated by LPS", "result": 0.3, "unit": "nM"},
      {"measurement": "IC50", "setting": "[8]; TNF-α stimulation, FIG. 3B, read-out: IC50 on MIP-1α secretion", "result": 0.6, "unit": "nM"},
      {"measurement": "IC50", "setting": "[9]; LPS stimulation, FIG. 2A, read-out: IC50 on MCP-1 secretion stimulated by LPS", "result": 0.7, "unit": "nM"},
      {"measurement": "IC50", "setting": "[9]; TNF-α stimulation, FIG. 2B, read-out: IC50 on MCP-1 secretion", "result": 0.5, "unit": "nM"},
      {"measurement": "IC50", "setting": "[10]", "result": 0.8, "unit": "nM"},
      {"measurement": "IC50", "setting": "[11]; LPS stimulation, FIG. 5A, read-out: IC50 on RANTES secretion stimulated by LPS", "result": 0.8, "unit": "nM"},
      {"measurement": "IC50", "setting": "[11]; TNF-α stimulation, FIG. 5B, read-out: IC50 on RANTES secretion", "result": 1.6, "unit": "nM"}
    ]},
    {"molecule": "C=C/C(=C\\C=C\\Cc1ccc(NC2=NCCN2)cc1)OCC", "note": "[Formula VI, reference compound]", "values": [
      {"measurement": "Cytokine expression on addition of the IP receptor antagonist to cicaprost", "setting": "[4]; Formula VI 10 uM with cicaprost 0-1000 nM", "result": "caused cytokine expression to remain elevated in comparison"}
    ]}
  ]
}
